Reference: patent US20250204515A1, “Heparanase Inhibition for Graft Protection” (University of Pittsburgh - Of the Commonwealth System of …, priority 2022, published 2025)

System: MMP-2
Test: Gelatin zymography of EVLP perfusate, inhibitors in perfusate
Design: species or system rat
Details: 4 hours EVLP, vs SF4 and control groups
Description: Gelatin zymography: Gelatin zymography was performed to measure secreted MMP-2 and MMP-9 activities in EVLP perfusate. Briefly, 20 μl of perfusate was mixed with 2×SDS sample buffer then loaded onto a 10% polyacrylamide gel containing 0.1% SDS and […]. After protein separation by electrophoresis, the gel was washed in renaturing buffer (Novex™ Invitrogen™) at room temperature, and then incubated in developing buffer (Novex™ Invitrogen™) overnight at 37° C. The next day, the gel was stained with Coomassie Brilliant Blue R-250 (Bio-Rad) and imaged (ChemiDoc, Bio-Rad). Enzyme activity, visualized as clear bands against the dark blue background, was quantified using Image-J (NIH).

heparin
MMP-2 activity in EVLP perfusate: significantly elevated
